In data set [1] the target is T1, Mitogen-activated protein kinase kinase kinase 5 (Homo sapiens, UniProt Q99683).
T1 sequence (Q99683 whole entry): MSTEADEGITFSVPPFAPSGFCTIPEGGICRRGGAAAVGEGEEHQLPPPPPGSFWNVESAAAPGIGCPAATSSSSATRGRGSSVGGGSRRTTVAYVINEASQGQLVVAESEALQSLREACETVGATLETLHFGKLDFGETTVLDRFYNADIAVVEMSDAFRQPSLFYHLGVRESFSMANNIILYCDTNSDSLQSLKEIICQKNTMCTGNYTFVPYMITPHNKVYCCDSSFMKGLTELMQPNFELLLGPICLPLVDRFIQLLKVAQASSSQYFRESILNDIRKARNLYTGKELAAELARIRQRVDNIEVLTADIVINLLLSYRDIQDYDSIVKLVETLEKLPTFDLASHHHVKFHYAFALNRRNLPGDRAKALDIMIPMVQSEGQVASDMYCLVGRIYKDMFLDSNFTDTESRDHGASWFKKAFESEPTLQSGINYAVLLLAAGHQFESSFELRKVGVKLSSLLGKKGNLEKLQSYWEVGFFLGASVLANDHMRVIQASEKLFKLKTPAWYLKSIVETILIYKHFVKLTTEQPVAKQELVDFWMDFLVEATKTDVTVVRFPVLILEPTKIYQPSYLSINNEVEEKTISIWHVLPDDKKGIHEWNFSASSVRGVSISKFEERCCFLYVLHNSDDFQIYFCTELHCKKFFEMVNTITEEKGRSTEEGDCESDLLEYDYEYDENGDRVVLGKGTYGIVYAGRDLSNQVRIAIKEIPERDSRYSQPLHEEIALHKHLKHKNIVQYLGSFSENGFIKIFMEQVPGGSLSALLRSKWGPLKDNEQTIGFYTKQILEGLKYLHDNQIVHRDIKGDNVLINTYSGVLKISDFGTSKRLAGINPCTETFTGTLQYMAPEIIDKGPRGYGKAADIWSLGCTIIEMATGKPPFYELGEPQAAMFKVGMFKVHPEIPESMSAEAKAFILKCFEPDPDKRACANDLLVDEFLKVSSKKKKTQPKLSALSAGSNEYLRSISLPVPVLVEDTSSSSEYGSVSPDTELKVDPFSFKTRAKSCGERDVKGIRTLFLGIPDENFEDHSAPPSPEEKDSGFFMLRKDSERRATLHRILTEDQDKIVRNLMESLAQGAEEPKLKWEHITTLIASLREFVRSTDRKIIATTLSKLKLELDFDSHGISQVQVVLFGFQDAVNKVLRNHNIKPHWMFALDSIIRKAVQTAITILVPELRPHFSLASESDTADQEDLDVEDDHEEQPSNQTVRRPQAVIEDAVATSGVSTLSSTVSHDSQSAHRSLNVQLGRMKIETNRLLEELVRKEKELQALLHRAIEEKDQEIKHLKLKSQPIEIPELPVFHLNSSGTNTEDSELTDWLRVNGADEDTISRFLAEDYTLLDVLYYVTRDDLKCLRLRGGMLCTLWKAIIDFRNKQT
The data set can be described thus: Inhibition of ASK1 (unknown origin) incubated for 2 hrs.

Data set [2] in a line: Unbound brain-to-plasma concentration ratio in rat at 1 mg/kg, iv by LC-MS/MS analysis. It is filed as ADME, organism-based. To be noted: brain and plasma, read-out: K(p,uu,brain).
Data set [3] has as its target T1, Mitogen-activated protein kinase kinase kinase 5. The data set can be described thus: Inhibition of ASK1 phosphorylation in HEK293T cells incubated for 1 hr. It is filed as cell-based.
Data set [4] shares this target. The data set can be described thus: Inhibition of full length GST-tagged recombinant human ASK1 using MBP as substrate incubated for 20 mins.
The target is the same in data set [5]. Description: Inhibition of full length GST-tagged recombinant human ASK1 using MBP as substrate incubated for 20 mins by cell based assay.
The nature of data set [6]: Cmax in rat 5 mg/kg, po measured upto 24 hrs by LC-MS/MS analysis. It is filed as ADME, organism-based. To be noted: in vivo.
Data set [7] is described as follows: AUC (0 to t) in rat 5 mg/kg, po measured upto 24 hrs by LC-MS/MS analysis. The format is ADME, organism-based. To be noted: in vivo.
Data set [8] in a line: Half life in rat 5 mg/kg, po measured upto 24 hrs by LC-MS/MS analysis. It is filed as ADME, organism-based. To be noted: in vivo.
Data set [9] concerns the target T1, Mitogen-activated protein kinase kinase kinase 5. The data set can be described thus: Inhibition of ASK1 (unknown origin) incubated for 0.5 to 5 hrs by TR-FRET assay. (In general: TR-FRET usually uses a lanthanide donor and a delayed reading to cut background.)
The target is the same in data set [10]. Description: Inhibition of ASK1 in HEK293 cells. It is filed as cell-based.
The nature of data set [11]: Apparent permeability of compound across apical to basolateral side in human Caco2 cells. It is filed as ADME, cell-based. To be noted: Caco-2.
Data set [12] can be described thus: Oral bioavailability in Sprague-Dawley rat at 1 mg/kg by LC-MS/MS analysis. To be noted: in vivo. It is filed as ADME, organism-based.
A short description of data set [13]: Efflux ratio of apparent permeability across basolateral to apical side over apical to basolateral side in human Caco2 cells by LC-MS/MS analysis. The format is ADME, cell-based. To be noted: Caco-2. Background: Passage across Caco-2 layers is used to estimate intestinal permeability.
Data set [14] in a line: Half life in Sprague-Dawley rat at 1 mg/kg, iv by LC-MS/MS analysis. It is filed as ADME, organism-based. To be noted: in vivo.
The species entered for data set [15] is Rattus norvegicus. Description: Antifibrotic activity CDHFD-NaNO2 rat model. It is filed as functional.
For data set [16], the species on record is Rattus norvegicus. Description: Antifibrotic activity CDHFD-NaNO2 rat model assessed as effect on hydroxyproline level. It is filed as functional.

With `C[C@H]1CCCOc2ncc(-c3ccncc3)cc2C(=O)Nc2cccc(n2)-c2nncn21`, the IC50 in [1] and in [3] was no more than 100 nM throughout. Besides, in data set [2], the Kp uu was no less than 0.1.

For the compound `C[C@H]1CCCOc2ncccc2C(=O)Nc2cccc(n2)-c2nncn21`, the IC50 was less than 100 nM in [1] and no more than 1000 nM in data set [3]. The Kp uu in [2] was no less than 0.1.

As to `Cc1cc(F)c(C(=O)Nc2cccc(-c3nnc4n3CCCC4)n2)cc1-n1nnc(C2CC2)n1`, the values for the IC50 in data set [4] and in data set [5] were greater than 1000 nM and greater than 100 nM, respectively.

In data set [6], `Cc1cc2c(cc1-n1cnc(C3CC3)c1)C(=O)N(c1cccc(-c3nncn3C(C)C)n1)C2C` (stereo not drawn) showed a Cmax of 2270 ng/mL. In data set [7], this compound had an AUC(0-t) at 24 h of 9430 ng·h/mL. In addition, the half-life in data set [8] was 2.9 h.

`Cc1cc2c(cc1-n1cnc(C3CC3)c1)C(=O)N(c1cccc(-c3nncn3C(C)C)n1)C2` came in with an IC50 in data set [9] of 3.9 nM. In data set [6], this compound yielded a Cmax of 8190 ng/mL. For the same compound, the AUC(0-t) at 24 h in [7] is 19200 ng·h/mL. The half-life in [8] was 1.3 h.

In turn, `Cc1ccc(C(=O)Nc2cccc(-c3nncn3C(C)C)n2)cc1-n1cnc(C2CC2)c1` gave a concentration for a half-maximal effect (EC50) in [10] of 18 nM. Moreover, in [11], the apparent permeability from apical to basolateral (Papp A→B) amounted to 0.26 ×10⁻⁶ cm/s. The compound further showed a bioavailability in data set [12] of 50%. The efflux ratio in data set [13] was found to be 15.4. In addition, in [14], the half-life is 1.2 h.

`Cc1cc(F)c(C(=O)Nc2cccc(-c3nncn3C(C)C)n2)cc1-n1cnc(C2CC2)c1` [SELONSERTIB]: the figures for the Activity in the data set filed under Rattus norvegicus [15] and in the data set listed under Rattus norvegicus [16] were 28% and 6%, respectively. Moreover, the bioavailability in data set [12] worked out at 75%.

Usually IC50 stands for the concentration that gives 50% inhibition. What is called Cmax is the peak of the concentration-time curve. As usually defined, the AUC(0-t) is the area under the concentration-time curve up to a stated or last time point. As usually defined, the half-life is the time needed for the level to fall by half in the phase considered. High values mean slow loss, low ones fast loss. For orientation: EC50 means the concentration at which the effect is half-maximal. The low end stands for greater potency, the high end for weaker potency. A word on the Papp A→B: it is the apparent permeability from the apical to the basolateral side of a cell layer. Usually bioavailability stands for dose-corrected exposure relative to a reference, in per cent. A lower bioavailability goes with little systemic uptake. Usually efflux ratio stands for the permeability from basolateral to apical divided by that in the opposite direction, in the common usage.

For the origin of these results see ChEMBL document CHEMBL5512601, “Small-molecule inhibitors targeting apoptosis signal-regulated kinase 1” (Eur J Med Chem, 2023).
